{"source": "patent US12667584B2", "about": "“Adenosine analog and its use in regulating the circadian clock” (NATIONAL INSTITUTE OF BIOLOGICAL SCIENCES, BEIJING, priority 2017, dated 2026)", "key": {"core clock genes": {"test_system": "core clock genes", "assay": "qPCR of pre-mRNA of core clock genes in liver", "type": "in vivo, mouse", "settings": "15 mg/kg, 1 h after treatment", "description": "Total RNA Extraction and pre-mRNA Analysis: Total RNA from liver was extracted 1 h after treatment of either DMSO or 15 mg/kg bw with QIAGEN Rneasy Mini Kit (74104, Qiagen), then digested with RNase-Free DNase Set (79254, Qiagen) to remove DNA residual. 500 ng total was reverse transcripted into cDNA with PrimeScript™ RT Master Mix (Takara, RR036A). To compare pre-mRNA levels, equal amount of cDNA RNA from DMSO and CA03 treated samples were analyzed using SYBR Green Master Mix (Kapa Biosystems, KP-KK4601) on a BioRad CFX96 instrument. Each gene was analyzed with multiple primers across the whole gene, and the amplification products were either intronic or across an intron-exon junction. Only primers with good melt-curve were used. For quantification, gene expression in DMSO treated sample was used as control, the relative genes expression in CA03 treated sample calculated by the comparative Ct Method.\nNext, the inventors sought to determine whether the clock effects of cordycepin can be recaptured in vivo. […] Mice were intraperitoneally (i.p.) injected with the cordycepin at ZT4 (ZT, zeitgeber time; ZT0 starts light-on, and ZT12 begins light-off). […] This observation is especially true when nascent RNA levels were measured, highlighting the first-order, inductive response in E-box genes as previously proposed(FIG. 2B). […]"}, "[1]": {"assay": "Cordycepin concentration in CSF after intraperitoneal injection", "type": "in vivo", "from_the_text": "We measured the cordycepin concentration in cerebrospinal fluid (CSF) after the intraperitoneal (I.P.) injection."}, "liver culture slice": {"test_system": "liver culture slice", "assay": "Ex vivo liver slice culture from Per2::LUC mice, lumicycle", "type": "cell-based, mouse", "settings": "100 μM at Per2::LUC peak", "from_the_text": "Tissue culture, drug treatment and Real-Time Monitoring of Circadian Oscillations: 8 week-old male mPer2 Luciferase knockin mice were Sacrificed cervical dislocation. Then wipe the skin and neck with cotton containing 70% ethanol in a sterile hood. For SCN slice culture, firstly remove the eye balls from the head with scissors, decapitate and cut the skin. Then open the skull, remove all bone until the olfactory bulbs can be seen, cut the optic nerve between the olfactory bulbs and the hemispheres, and finally harvest the whole brain into ice cold HBSS. Trim the brain in HBSS by removing the cerebellum and olfactory bulbs. Attach the brain to a sample tray by glue with the rostral tip upwards and ventral surface closest to the cutting blade, then immediately fill the tray with ice cold HBSS and set the tray to the vibratome. Set the vibratome frequency at the maximum and the speed to the medium. To reach the SCN area quickly, the start cutting off thicker sections should be 500-800 μm. Reduce the sections thicker to 100 μm when the optic chiasm becomes wider. When the two SCN nuclei start to appear, collect the slice with transfer pipettes and check slices under dissecting microscope. […] Data was extract and analyzed with LumiCycle Analysis software. […]"}, "[2]": {"test_system": "Per2::LUC adult murine fibroblasts", "assay": "Time-of-admission phase shift and amplitude in Per2::LUC adult murine fibroblasts", "type": "cell-based, mouse", "description": "In above investigation, we found cordycepin (cordycepin-like nucleosides) shift the circadian phase, therefore it could be seemed as a circadian time giver (zeitgeiber). One prominent character of zeitgeiber is phase dependent function. Therefore, we further tested whether cordycepin also has the character. We use both transcriptional reporter (Per2:luc U2OS cells) translational reporter (Per2::LUC adult murine fibroblasts) model to investigate this character. The two reporter were seeded in 3.5 cm dish, transferred into lumicycle, and treated with cordycepin (100 μM in Per2:luc U2OS cells and 25 μM in Per2::LUC adult murine fibroblasts) every 2 hours from CT 0 to CT 24. 3 days after treatment and data analysis, we found in both reporter cells, cordycepin show highly “time-of-admission” dependent phase-change, 12 h phase shift when applied at CT10 and nearly 0 h phase shift when applied at CT 20 (F). […] To test this, we treated nearly damped Per2::LUC adult murine fibroblasts at CT 20 with DMSO or 25 μM cordycepin."}}}
{"molecule": "Nc1ncnc2c1ncn2[C@@H]1O[C@H](CO)C[C@H]1O", "note": "[Cordycepin, 3′-deoxy-adenosine]", "values": [{"measurement": "E-box gene transcription (pre-mRNA, liver)", "setting": "core clock genes", "value": "activate"}, {"measurement": "RRE gene and internal control gene transcription (pre-mRNA, liver)", "setting": "core clock genes", "value": "repress"}, {"measurement": "time of detection in the CSF after the injection", "setting": "[1]", "value": "≤ 15", "unit": "min"}, {"measurement": "clock phase of liver slice versus DMSO", "setting": "liver culture slice", "value": "totally antiphase"}, {"measurement": "phase shift", "setting": "[2]; 25 μM applied at CT10", "value": 12, "unit": "h"}, {"measurement": "phase shift", "setting": "[2]; 25 μM applied at CT 20", "value": "~0", "unit": "h"}, {"measurement": "amplitude", "setting": "[2]; 25 μM at CT 20, nearly damped fibroblasts", "value": "increase the amplitude"}]}
